Where two headings read alike, the source gives them in different places.
Biological target: Human complement C1s enzyme (Homo sapiens (Human), UniProt P09871)
Test: Human C1s enzyme assay
Type: biochemical
Settings: read-out: IC50 (Stars)
Description: Human complement C1s enzyme (purified from human serum, Complement Technology, Inc.) at 1.16 nM final concentration was incubated with test compound at various concentrations for 5 min at room temperature in 50 mM Tris, 1 M NaCl, pH 7.5. A synthetic substrate Z-L-Lys-SBzl and DTNB (Ellman's reagent) were added to final concentrations of 100 μM each. Absorbance at 405 nm (A405) was recorded at 30 second intervals for 30 min using a microplate spectrophotometer. IC50 values were calculated by nonlinear regression of complement C1s reaction rates as a function of test compound concentration.

[1] = Human complement C1s enzyme 1.16 nM, substrate Z-L-Lys-SBzl 100 μM, assay of Example 3
[2] = Human C1s enzyme assay of Example 3
[3] = Human complement C1s enzyme 1.16 nM, substrate Z-L-Lys-SBzl, assay of Example 3

Sequence of Human complement C1s enzyme (P09871 438-688 limits assumed): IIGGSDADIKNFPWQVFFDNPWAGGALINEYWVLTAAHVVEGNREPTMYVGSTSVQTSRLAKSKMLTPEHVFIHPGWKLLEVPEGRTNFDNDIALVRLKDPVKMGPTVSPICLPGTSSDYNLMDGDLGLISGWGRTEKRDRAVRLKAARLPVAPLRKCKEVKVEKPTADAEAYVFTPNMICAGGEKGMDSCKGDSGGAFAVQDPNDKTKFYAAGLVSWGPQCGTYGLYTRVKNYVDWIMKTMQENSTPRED
Sequence of Human complement C1s enzyme (P09871 16-437 partner limits assumed): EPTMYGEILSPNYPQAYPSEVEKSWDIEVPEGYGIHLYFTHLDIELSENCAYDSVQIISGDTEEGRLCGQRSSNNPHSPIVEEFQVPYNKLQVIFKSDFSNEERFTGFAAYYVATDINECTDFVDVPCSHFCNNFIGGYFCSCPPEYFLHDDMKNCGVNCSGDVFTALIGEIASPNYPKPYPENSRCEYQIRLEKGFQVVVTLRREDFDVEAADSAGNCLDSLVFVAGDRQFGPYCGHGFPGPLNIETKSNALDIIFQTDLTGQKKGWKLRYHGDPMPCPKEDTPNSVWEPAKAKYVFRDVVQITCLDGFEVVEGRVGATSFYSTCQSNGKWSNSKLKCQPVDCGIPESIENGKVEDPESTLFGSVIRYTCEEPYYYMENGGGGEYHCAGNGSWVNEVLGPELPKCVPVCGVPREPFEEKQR

Row | IC50 [1] | IC50 [2] | SMILES | further results
1 | < 0.1 µM | – | N=C(N)c1csc(CNC(=O)[C@@H]2CC3(CN2C(=O)CNC(=O)c2ccc(-c4ccc(F)nc4)cc2)OCCO3)c1 [Compound 209, (S)—N-((4-carbamimidoylthiophen-2-yl)methyl)-7-((4-(6-fluoropyridin-3-yl)benzoyl)glycyl)-1,4-dioxa-7-azaspiro[4.4]nonane-8-carboxamide] | –
2 | – | < 0.1 µM | COC[C@@]1(F)C[C@@H](C(=O)N[C@H](C)c2cc(C(=N)N)cs2)N(C(=O)CNC(=O)c2ccc3c(c2)-c2ccccc2C3(C)C)C1 [Compound 139, (2S,4R)—N—((R)-1-(4-carbamimidoylthiophen-2-yl)ethyl)-1-((9,9-dimethyl-9H-fluorene-3-carbonyl)glycyl)-4-fluoro-4-(methoxymethyl) pyrrolidine-2-carboxamide] | –
3 | – | – | CC1c2ccccc2-c2cc(C(=O)NCC(=O)N3C[C@H](S(C)(=O)=O)C[C@H]3C(=O)N[C@H](C)c3cc(C(=N)N)cs3)ccc21 (stereo partly drawn) [Compound 419, (2S,4R)—N—((R)-1-(4-carbamimidoylthiophen-2-yl)ethyl)-1-((9-methyl-9H-fluorene-3-carbonyl)glycyl)-4-(methylsulfonyl)pyrrolidine-2-carboxamide] | IC50 [3]: < 0.1 µM
4 | – | < 0.1 µM | C[C@@H](NC(=O)[C@@H]1C[C@@H](c2ccccc2)CN1C(=O)CNC(=O)c1ccc2c(c1)-c1ccccc1C2(F)F)c1cc(C(=N)N)cs1 [Compound 81, (2S,4S)—N—((R)-1-(4-carbamimidoylthiophen-2-yl)ethyl)-1-((9,9-difluoro-9H-fluorene-3-carbonyl)glycyl)-4-phenylpyrrolidine-2-carboxamide] | –
5 | – | < 0.1 µM | C[C@@H](NC(=O)[C@@H]1C[C@](F)(CF)CN1C(=O)CNC(=O)c1ccc(C(F)(F)c2ccccc2)cc1)c1cc(C(=N)N)cs1 [Compound 154, (2S,4R)—N—((R)-1-(4-carbamimidoylthiophen-2-yl)ethyl)-1-((4-(difluoro(phenyl)methyl)benzoyl)glycyl)-4-fluoro-4-(fluoromethyl)pyrrolidine-2-carboxamide] | –
6 | – | < 0.1 µM | C[C@@H](NC(=O)[C@@H]1CC2(CN1C(=O)CNC(=O)c1ccc(Oc3ccc(F)cc3)cc1)OCCO2)c1cc(C(=N)N)cs1 [Compound 23, (S)—N—((R)-1-(4-carbamimidoylthiophen-2-yl)ethyl)-7-((4-(4-fluorophenoxy)benzoyl)glycyl)-1,4-dioxa-7-azaspiro[4.4]nonane-8-carboxamide] | –
7 | < 0.1 µM | – | N=C(N)c1csc(CNC(=O)[C@@H]2CC3(CN2C(=O)CNC(=O)c2ccc(-c4ccc(C(=O)O)cc4F)cc2)OCCO3)c1 [Compound 242, (S)-4′-((2-(8-(((4-carbamimidoylthiophen-2-yl)methyl)carbamoyl)-1,4-dioxa-7-azaspiro[4.4]nonan-7-yl)-2-oxoethyl)carbamoyl)-2-fluoro-[1,1′-biphenyl]-4-carboxylic acid] | –
8 | – | < 0.1 µM | C[C@@H](NC(=O)[C@@H]1C[C@](F)(CF)CN1C(=O)CNC(=O)c1ccc(Oc2ccc(C(F)(F)F)cc2)cc1)c1cc(C(=N)N)cs1 [Compound 15, (2S,4R)—N-[(1R)-1-(4-carbamimidoylthiophen-2-yl)ethyl]-4-fluoro-4-(fluoromethyl)-1-[2-({4-[4-(trifluoromethyl)phenoxy]phenyl}formamido)acetyl]pyrrolidine-2-carboxamide] | –
9 | – | < 0.1 µM | C[C@@H](NC(=O)[C@@H]1C[C@H](C2OCCCO2)CN1C(=O)CNC(=O)c1ccc(Oc2ccc(F)cc2)cc1)c1cc(C(=N)N)cs1 (relative stereo) [Compound 161, (2S,4S*)—N—((R)-1-(4-carbamimidoylthiophen-2-yl)ethyl)-4-(1,3-dioxan-2-yl)-1-((4-(4-fluorophenoxy)benzoyl)glycyl)pyrrolidine-2-carboxamide] | –
10 | – | < 0.1 µM | C[C@@H](NC(=O)[C@@H]1C[C@]2(CO)C[C@@H]2N1C(=O)CNC(=O)c1ccc(Oc2ccc(F)cc2)cc1)c1ccc(C(=N)N)s1 [Compound 41, (1S,3S,5R)—N—((R)-1-(5-carbamimidoylthiophen-2-yl)ethyl)-2-((4-(4-fluorophenoxy)benzoyl)glycyl)-5-(hydroxymethyl)-2-azabicyclo[3.1.0]hexane-3-carboxamide] | –
11 | – | < 0.1 µM | N=C(N)c1csc(CNC(=O)[C@@H]2CC3(CN2C(=O)CNC(=O)c2ccc(-c4cc(F)ccc4F)cc2)OCCO3)c1 [Compound 188, (S)—N-((4-carbamimidoylthiophen-2-yl)methyl)-7-((2′,5′-difluoro-[1,1′-biphenyl]-4-carbonyl)glycyl)-1,4-dioxa-7-azaspiro[4.4]nonane-8-carboxamide] | –
12 | < 0.1 µM | – | C[C@@H](NC(=O)[C@@H]1C[C@](F)(COCCCCCC(=O)O)CN1C(=O)CNC(=O)c1ccc2c(c1)-c1ccccc1C2(F)F)c1cc(C(=N)N)cs1 [Compound 201, 6-(((3R,5S)-5-(((R)-1-(4-carbamimidoylthiophen-2-yl)ethyl)carbamoyl)-1-((9,9-difluoro-9H-fluorene-3-carbonyl)glycyl)-3-fluoropyrrolidin-3-yl)methoxy)hexanoic acid] | –
13 | < 0.1 µM | – | C[C@@H](NC(=O)[C@@H]1CC2(CN1C(=O)CNC(=O)c1ccc3sc4ccccc4c3c1)OCCO2)c1cc(C(=N)N)cs1 [Compound 254, (S)—N—((R)-1-(4-carbamimidoylthiophen-2-yl)ethyl)-7-((dibenzo[b,d]thiophene-2-carbonyl)glycyl)-1,4-dioxa-7-azaspiro[4.4]nonane-8-carboxamide] | –
14 | – | – | CC1(C)c2ccccc2-c2cc(C(=O)NCC(=O)N3CC4(C[C@H]3C(=O)N[C@H](CO)c3cc(C(=N)N)cs3)OCCO4)ccc21 [Compound 399, (S)—N—((R)-1-(4-carbamimidoylthiophen-2-yl)-2-hydroxyethyl)-7-((9,9-dimethyl-9H-fluorene-3-carbonyl)glycyl)-1,4-dioxa-7-azaspiro[4.4]nonane-8-carboxamide] | IC50 [3]: < 0.1 µM
15 | < 0.1 µM | – | COC[C@@]1(F)C[C@@H](C(=O)N[C@H](CO)c2cc(C(=N)N)cs2)N(C(=O)CNC(=O)c2ccc3c(c2)C(F)(F)c2ccccc2-3)C1 [Compound 397, (2S,4R)—N—((R)-1-(4-carbamimidoylthiophen-2-yl)-2-hydroxyethyl)-1-((9,9-difluoro-9H-fluorene-2-carbonyl)glycyl)-4-fluoro-4-(methoxymethyl)pyrrolidine-2-carboxamide] | –
16 | < 0.1 µM | – | C[C@@H](NC(=O)[C@@H]1CC2(CN1C(=O)CNC(=O)c1ncc(-c3ccc(F)cc3F)cc1F)OCCO2)c1cc(C(=N)N)cs1 [Compound 356, (S)—N—((R)-1-(4-carbamimidoylthiophen-2-yl)ethyl)-7-((5-(2,4-difluorophenyl)-3-fluoropicolinoyl)glycyl)-1,4-dioxa-7-azaspiro[4.4]nonane-8-carboxamide] | –
17 | < 0.1 µM | – | C[C@@H](NC(=O)[C@@H]1C[C@]2(CN(C)C)C[C@@H]2N1C(=O)CNC(=O)c1ccc2c(c1)-c1ccccc1C2(F)F)c1cc(C(=N)N)cs1 [Compound 304, (1S,3S,5S)—N—((R)-1-(4-carbamimidoylthiophen-2-yl)ethyl)-2-((9,9-difluoro-9H-fluorene-3-carbonyl)glycyl)-5-((dimethylamino)methyl)-2-azabicyclo[3.1.0]hexane-3-carboxamide] | –

Row | SMILES | IC50 [1] | IC50 [2] | further results
18 | CC(=O)ONC(=N)c1csc([C@@H](C)NC(=O)[C@@H]2CC3(CN2C(=O)CNC(=O)c2ccc4c(c2)-c2ccccc2C4(F)F)OCCO3)c1 [Compound 125, (S)—N—((R)-1-(4-(N-acetoxycarbamimidoyl)thiophen-2-yl)ethyl)-7-((9,9-difluoro-9H-fluorene-3-carbonyl)glycyl)-1,4-dioxa-7-azaspiro[4.4]nonane-8-carboxamide] | – | < 0.1 µM | –

— patent US20250346585A1 (Alexion Pharmaceuticals, Inc., priority 2022, published 2025)
